Assay in all cases: NCI tumour cell line growth inhibition, 48 h
In assay [1] the test system is HCT-116 colon.
Assay [2] has as its system HOP-62 NSCLC.
Assay [3] deals with COLO 205 colon.
Assay [4] has as its system TK-10 renal.
Assay [5] concerns CAKI-1 renal.
Assay [6] relates to DU-145 prostate.
Assay [7] relates to SF-268 CNS.
The test system of assay [8] is NCI-H522 lung.
For assay [9], the system named is K-562 leukemia.
Assay [10] concerns SF-295 CNS.
Assay [11] deals with ACHN renal.
For assay [12], the system named is A498 renal.
Assay [13] concerns MOLT-4 leukemia.
In assay [14] the test system is LOX IMVI melanoma.
For assay [15], the system named is HS 578T breast.
The subject of assay [16] is A549 NSCLC.
In assay [17] the test system is HL-60(TB) leukemia.
In assay [18] the test system is NCI-H23 lung.
In assay [19] the test system is NCI-H226 lung.
Assay [20] has as its system SR leukemia.

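These data come from cells grown in 96-well plates and exposed to compound for 48 hours at five concentrations. TGI is the concentration that stops growth completely.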

As to `CCOc1ccc(Nc2nc3c(s2)C(=O)c2ccccc2C3=O)cc1`, the TGI was 33.2 µM in [1]; 32 µM in assay [2]; 46 µM in [3]; 36.3 µM in assay [4]; 20.7 µM in [5]; 27.8 µM in assay [6]. The TGI in [7] is 16.7 µM; in assay [8], 78.7 µM; in assay [9], greater than 100 µM; in assay [10], 23.5 µM; in assay [11] it was 28.9 µM; in [12], 29.7 µM. For the same compound, the TGI in assay [13] is greater than 100 µM; in assay [14], 15.8 µM; in assay [15] it was greater than 100 µM; in [16] it was 44.3 µM; in [17], greater than 100 µM.

For `N#Cc1n[nH]n(C2CCCCC2)c1=O`, the TGI in assay [1], in [2], in [3], in [4], in assay [5] and in assay [6] was greater than 100 µM in each case. For the same compound, the TGI in [7], in assay [8], in [10], in assay [11], in [12] and in [13] was greater than 100 µM each time. In addition, the TGI in assay [14], in [15], in [16], in [17], in [18] and in [19] was greater than 100 µM each time.

With `Cc1ccccc1C1OC(=O)c2ccccc21` (stereo unspecified), the TGI in [1], in assay [2], in [3], in assay [4], in assay [7] and in [20] was greater than 100 µM in each case. For the same compound, the TGI in [8], in [9], in assay [11], in [12], in assay [13] and in assay [14] was greater than 100 µM each time. Also, the TGI in assay [16], in [17], in [18] and in [19] was greater than 100 µM each time.

`CCOc1ccc(NC(=O)C(=O)NO)cc1`: the TGI in assay [1], in [2], in assay [3], in assay [4], in assay [5] and in assay [7] was greater than 100 µM throughout. In addition, the TGI in assay [20], in assay [8], in assay [9], in assay [10], in assay [11] and in assay [12] was greater than 100 µM each time. Also, the TGI in assay [13], in [14], in [16], in assay [17], in [18] and in [19] was greater than 100 µM throughout.

Turning to `O=C1NC(=O)C(CC(C(=O)C(=O)Nc2ccccc2Cl)C(=O)c2ccc3ccccc3c2)C(=O)N1` (stereo unspecified), the TGI in assay [1], in [2], in assay [3], in [4], in assay [5] and in [6] was greater than 100 µM each time. The TGI in assay [7], in [8], in [10], in assay [11], in assay [13] and in assay [14] was greater than 100 µM throughout. The TGI in [15], in [16], in [17], in assay [18] and in [19] was greater than 100 µM in each case.

As to `CC(C)C[C@H](NC(=O)[C@H](Cc1ccccc1)NC(=O)CCc1ccccc1)B(O)O`, the TGI in [1] was less than 0.01 µM; in [2], less than 0.01 µM; in assay [3], less than 0.01 µM; in assay [4] it was less than 0.01 µM; in assay [5], 0.0554 µM; in assay [6] it was less than 0.01 µM. In addition, the TGI in assay [7] was less than 0.01 µM; in assay [8], less than 0.01 µM; in assay [9], greater than 100 µM; in assay [10] it was less than 0.01 µM; in assay [11], less than 0.01 µM; in [12], less than 0.01 µM. Moreover, the TGI in assay [13] was 0.665 µM; in assay [14], less than 0.01 µM; in [15], less than 0.01 µM; in assay [16], 0.0919 µM; in [18], less than 0.01 µM; in [19], less than 0.01 µM.

`COc1cc(/C=N/n2c(Cc3ccc(Cl)cc3)n[nH]c2=O)cc(OC)c1OC`: the TGI in assay [1], in [2], in assay [3], in assay [5], in assay [7] and in assay [9] was greater than 100 µM in each case. The TGI in assay [10] is greater than 100 µM; in [11] it was greater than 100 µM; in assay [12], greater than 100 µM; in [13] it was greater than 100 µM; in assay [15], 27.2 µM; in assay [16], greater than 100 µM. For the same compound, the TGI in assay [18] and in assay [19] was greater than 100 µM in each case.

With `COCO[C@@H]1C[C@H]2C(=O)N(COC)c3ccccc3C(=O)N2C1`, the TGI in assay [1], in [2], in assay [3], in assay [4], in assay [5] and in assay [6] was greater than 100 µM each time. The TGI in [7], in assay [8], in assay [10], in assay [11], in [12] and in [13] was greater than 100 µM each time. Also, the TGI in assay [14], in assay [15], in assay [16], in [17], in [18] and in assay [19] was greater than 100 µM each time.
